Experimental data as given in patent US20100063085A1, “METHOD OF TREATING LEARNING IMPAIRMENT IN DOWN'S SYNDROME SUBJECTS” (University Court of The University of Dundee, priority 2008, published 2010).
Like-named read-outs stand apart in the source and are kept apart here.

Assays:
Format in all cases: biochemical
PLK1 = PLK1 (Homo sapiens, UniProt P53350); assay: PLK1 33P kinase assay; details: read-out: PLK1 activity as percentage of control without inhibitor
Procedure: (§1) All assays (25.5 μl) were carried out at room temperature (21° C.) and were linear with respect to time and enzyme concentrations under the conditions used. Assays were performed for 30 minutes except assays for LCK and PKB which were performed for 15 minutes using Multidrop Micro reagent dispensers (Thermo Electron Corporation, Waltham, Mass. 02454, USA) in a 96-well format. The concentration of […] [γ-^33P] ATP (800 cpm/pmol) in the assays was one of three concentrations (5, 20 or 50 μM) in order to be at or below Km for ATP for the enzyme. Assays were initiated with MgATP and stopped by addition of 5 μl of 0.5M orthophosphoric acid. Assays were then harvested onto P81 filterplates using a unifilter harvester (PerkinElmer, Boston, Mass. 02118, USA), with a wash buffer of 50 mM orthophosphoric acid. Filterplates were then air dried overnight. 10 μl of Microscint O was added per well prior to counting for radioactivity.
(§2) The following kinases were assayed against the substrates indicated. Aurora B was assayed against the substrate peptide […] (300 μM), ERK8 and MST-2 were both assayed against MBP (0.33 mg/ml). IKKβ was assayed against the substrate peptide […] (300 μM), JNK3 was assayed against 3 μM ATF2[19-96]. MAPKAP-K3 and PKD1 were both assayed against […] (30 μM), MARK3 was assayed against CHKtide ([…]) substrate peptide (300 μM). MNK1 and MNK2 were both assayed against eIF4E protein (0.5 mg/ml). NEK7 was assayed against […] (300 μM), PIM2 was assayed against […] (300 μM), ΔPH PKBβ-S474D was assayed against Crosstide (30 μM), PLK1 was assayed against […] (300 μM). PRK2 was assayed against Long S6 peptide, […] (30 μM), RSK2 was assayed against […] (30 μM), SRC was assayed against cdc2 peptide, […], (300 μM) and SRPK1 was assayed against peptide […] (300 μM). All enzymes were diluted in 50 mM Tris/HCl pH 7.5, 0.1 mM EGTA, 1 mg/ml BSA, 0.1% β-mercaptoethanol buffer and assayed in an incubation containing 50 mM Tris/HCl pH7.5, 0.1 mM EGTA, 0.1% β-mercaptoethanol, CAMK-1 (5-20 mU) diluted in 50 mM Tris/HCl pH 7.5, 0.1 mM EGTA, 1 mg/ml BSA, 0.1% β-mercaptoethanol is assayed against substrate peptide […] in an incubation containing 50 mM Tris/HCl pH 7.5, 0.1 mM EGTA, 0.5 mM CaCl2, 0.3 μM calmodulin, 0.1% β-mereaptoethanol, 300 μM substrate peptide, 10 mM magnesium acetate and 0.05 mM [^33P-γ-ATP] (500-1000 cpm/pmole). EF2K (5-20 mU) diluted in 50 mM Hepes pH 6.6, 0.1% β-mercaptoethanol, 1 mg/ml BSA is assayed against a substrate peptide […] in an incubation containing 50 mM Hepes pH 6.6, 0.2 mM CaCl2, 0.3 μM Calmodulin, 0.05% b-mercaptoethanol, 300 μM substrate peptide, 10 mM magnesium acetate and 0.05 mM [^33P-γ-ATP] (500-1000 cpm/pmole).

PIM2 = PIM2 (Homo sapiens, UniProt Q9P1W9); assay: PIM2 33P kinase assay; details: read-out: PIM2 activity as percentage of control without inhibitor
Procedure: as §1, §2

PKCa = PKCa (Homo sapiens, UniProt P17252); assay: PKCa 33P kinase assay; details: read-out: PKCa activity as percentage of control without inhibitor; for remaining activity at 1 µM: inhibitor 1 μM; for remaining activity at 10 µM: inhibitor 10 μM
Procedure: as §1
(§3) MKK1, JNK/SAPK1c, SAPK2a/p38, SAPK2b/p38β2, SAPK3/p38γ, SAPK4/p38δ, MAPK2/ERK2, MAPKAP-K1β, MAPKAP-K2, MSK1, PRAK, PKA, PKCα, PDK1, SGK, p70S6K, GSK3β, ROCK-II, PRK2, AMPK, CHK1, CHK2, CK2, PHK, LCK, were assayed according to Davies et al., (Davies, S. P., Reddy, H., Caivano, M. and Cohen, P. Biochem. J. 351, 95-105, 2000.
(§4) CSK and CDK2/cyclinA, were assayed according to Bain et al. (Bain J, McLauchlan H, Elliott M, Cohen P. Biochem J. 371, 199-204, 2003., except that ATP concentrations were either 5, 20 or 50 micromolar so that they were at or below the Km for ATP. The ATP concentrations used were as follows, 5 μM for assays of MKK1, SAPK3, SAPK4, GSK3β, PRK2 CK2 20 μm for assays of JNK, SAPK2β, MAPKAP-K2, MSK1, PRAK, PKA, […], PDK1, SGK, p70S6K, ROCK-II, CHK1, CHK2, CSK, CDK2, and 50 μM for assays of SAPK2a, MAPK2/ERK2, AMPK, LCK, PHK and MAPKAP-K1β.

JNK/SAPK1c = JNK/SAPK1c (Homo sapiens, UniProt P45983); assay: JNK/SAPK1c 33P kinase assay; details: read-out: JNK/SAPK1c activity as percentage of control without inhibitor
Procedure: as §1, §3, §4

MAPKAP-K1b = MAPKAP-K1b (Homo sapiens, UniProt P51812); assay: MAPKAP-K1b 33P kinase assay; details: read-out: MAPKAP-K1b activity as percentage of control without inhibitor
Procedure: as §1, §3, §4

Chain of JNK/SAPK1c (P45983 whole entry): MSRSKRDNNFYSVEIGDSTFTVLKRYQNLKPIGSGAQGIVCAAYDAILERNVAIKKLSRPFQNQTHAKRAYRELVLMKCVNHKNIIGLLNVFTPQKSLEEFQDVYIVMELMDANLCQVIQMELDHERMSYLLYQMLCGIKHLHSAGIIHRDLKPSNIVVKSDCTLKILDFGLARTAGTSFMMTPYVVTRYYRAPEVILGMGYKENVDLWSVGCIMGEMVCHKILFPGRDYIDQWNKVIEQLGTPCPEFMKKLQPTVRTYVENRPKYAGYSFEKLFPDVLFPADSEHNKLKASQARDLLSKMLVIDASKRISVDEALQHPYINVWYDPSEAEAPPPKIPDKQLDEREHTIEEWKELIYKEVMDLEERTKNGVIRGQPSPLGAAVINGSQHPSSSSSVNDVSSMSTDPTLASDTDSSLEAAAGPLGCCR
Chain of PIM2 (Q9P1W9 whole entry, species assumed): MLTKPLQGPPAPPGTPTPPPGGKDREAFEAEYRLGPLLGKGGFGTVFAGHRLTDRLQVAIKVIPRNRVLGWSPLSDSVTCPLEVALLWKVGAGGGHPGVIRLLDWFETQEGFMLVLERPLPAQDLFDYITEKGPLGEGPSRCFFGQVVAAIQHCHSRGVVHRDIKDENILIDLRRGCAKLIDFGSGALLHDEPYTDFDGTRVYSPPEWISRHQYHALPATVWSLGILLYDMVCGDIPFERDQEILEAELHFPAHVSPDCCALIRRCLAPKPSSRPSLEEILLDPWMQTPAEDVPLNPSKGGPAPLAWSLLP
Chain of MAPKAP-K1b (P51812 whole entry, species assumed): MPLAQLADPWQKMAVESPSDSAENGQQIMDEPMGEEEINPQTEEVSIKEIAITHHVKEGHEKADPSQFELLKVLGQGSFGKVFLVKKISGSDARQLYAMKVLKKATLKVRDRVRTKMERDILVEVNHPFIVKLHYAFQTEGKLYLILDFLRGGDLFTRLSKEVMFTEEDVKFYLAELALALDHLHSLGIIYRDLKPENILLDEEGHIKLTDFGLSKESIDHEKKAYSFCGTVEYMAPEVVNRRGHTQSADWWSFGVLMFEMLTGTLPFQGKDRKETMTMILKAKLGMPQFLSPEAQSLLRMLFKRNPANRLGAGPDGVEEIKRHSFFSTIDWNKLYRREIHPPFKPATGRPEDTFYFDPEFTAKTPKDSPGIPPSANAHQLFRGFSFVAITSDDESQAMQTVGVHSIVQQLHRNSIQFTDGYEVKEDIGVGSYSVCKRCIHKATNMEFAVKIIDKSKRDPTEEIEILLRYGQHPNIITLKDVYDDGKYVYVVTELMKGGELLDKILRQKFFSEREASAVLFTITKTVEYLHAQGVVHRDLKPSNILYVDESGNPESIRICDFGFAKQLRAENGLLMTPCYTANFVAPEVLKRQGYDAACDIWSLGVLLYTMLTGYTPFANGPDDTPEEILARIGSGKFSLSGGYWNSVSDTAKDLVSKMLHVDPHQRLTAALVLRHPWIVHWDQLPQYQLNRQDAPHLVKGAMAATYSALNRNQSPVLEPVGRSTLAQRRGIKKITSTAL
Chain of PLK1 (P53350 whole entry, species assumed): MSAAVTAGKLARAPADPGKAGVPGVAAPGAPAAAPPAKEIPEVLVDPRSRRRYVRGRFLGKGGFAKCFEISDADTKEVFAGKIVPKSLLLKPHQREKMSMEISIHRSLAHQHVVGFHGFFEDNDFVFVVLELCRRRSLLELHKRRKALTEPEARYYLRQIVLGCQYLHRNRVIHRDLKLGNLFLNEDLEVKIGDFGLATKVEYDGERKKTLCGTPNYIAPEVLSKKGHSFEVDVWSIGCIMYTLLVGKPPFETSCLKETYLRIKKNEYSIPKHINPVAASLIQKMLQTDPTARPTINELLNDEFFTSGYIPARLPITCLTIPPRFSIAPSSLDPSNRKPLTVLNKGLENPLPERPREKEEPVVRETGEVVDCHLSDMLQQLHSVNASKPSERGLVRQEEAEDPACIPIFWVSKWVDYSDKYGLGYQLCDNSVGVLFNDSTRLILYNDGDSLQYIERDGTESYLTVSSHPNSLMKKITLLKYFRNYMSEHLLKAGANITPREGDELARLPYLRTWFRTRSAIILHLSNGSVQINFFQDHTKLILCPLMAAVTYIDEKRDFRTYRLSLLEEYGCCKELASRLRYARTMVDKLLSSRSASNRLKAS

SMILES	remaining activity at 1 µM (PLK1; inhibitor 1 μM)	remaining activity at 10 µM (PLK1; inhibitor 10 μM)	remaining activity at 1 µM (PIM2; inhibitor 1 μM)	remaining activity at 10 µM (PIM2; inhibitor 10 μM)	remaining activity at 1 µM (PKCa)	remaining activity at 10 µM (PKCa)	remaining activity at 1 µM (JNK/SAPK1c)	remaining activity at 10 µM (JNK/SAPK1c)	remaining activity at 1 µM (MAPKAP-K1b; inhibitor 1 μM)	remaining activity at 10 µM (MAPKAP-K1b; inhibitor 10 μM)	remaining activity at 1 µM (PLK1)	remaining activity at 10 µM (PLK1)	remaining activity at 1 µM (PIM2)	remaining activity at 10 µM (PIM2)	remaining activity at 1 µM (MAPKAP-K1b)	remaining activity at 10 µM (MAPKAP-K1b)	remaining activity at 1 µM (JNK/SAPK1c; inhibitor 1 μM)	remaining activity at 10 µM (JNK/SAPK1c; inhibitor 10 μM)
COc1ccc2c3c([nH]c2c1)C(C)=NCC3 [Harmaline]	92%	100%	86%	101%	88%	81%	99%	96%	87%	80%	–	–	–	–	–	–	–	–
COc1ccc2c(c1)[nH]c1c(C)nccc12 [Harmine]	–	–	–	–	96%	101%	85%	69%	–	–	92%	87%	77%	41%	89%	95%	–	–
CC1=NCCc2c1[nH]c1cc(O)ccc21 [Harmalol]	88%	81%	90%	57%	109%	78%	–	–	87%	67%	–	–	–	–	–	–	87%	84%
